Measurements as given in ChEMBL document CHEMBL5647690, “Inhibition of demethylases by GSK-J1/J4” (Nature, 2014).

How the values were obtained:
[1] = target: Lysine-specific demethylase 5A (Homo sapiens, UniProt P29375); experiment: Inhibition of KDM5A (1 to 1090 residues)(unknown origin) by Alphalisa assay
[2] = target: T1, Lysine-specific demethylase 2B (Homo sapiens, UniProt Q8NHM5); experiment: Inhibition of KDM2B (1 to 650 residues)(unknown origin) by Alphalisa assay
T1 sequence (Q8NHM5 whole entry): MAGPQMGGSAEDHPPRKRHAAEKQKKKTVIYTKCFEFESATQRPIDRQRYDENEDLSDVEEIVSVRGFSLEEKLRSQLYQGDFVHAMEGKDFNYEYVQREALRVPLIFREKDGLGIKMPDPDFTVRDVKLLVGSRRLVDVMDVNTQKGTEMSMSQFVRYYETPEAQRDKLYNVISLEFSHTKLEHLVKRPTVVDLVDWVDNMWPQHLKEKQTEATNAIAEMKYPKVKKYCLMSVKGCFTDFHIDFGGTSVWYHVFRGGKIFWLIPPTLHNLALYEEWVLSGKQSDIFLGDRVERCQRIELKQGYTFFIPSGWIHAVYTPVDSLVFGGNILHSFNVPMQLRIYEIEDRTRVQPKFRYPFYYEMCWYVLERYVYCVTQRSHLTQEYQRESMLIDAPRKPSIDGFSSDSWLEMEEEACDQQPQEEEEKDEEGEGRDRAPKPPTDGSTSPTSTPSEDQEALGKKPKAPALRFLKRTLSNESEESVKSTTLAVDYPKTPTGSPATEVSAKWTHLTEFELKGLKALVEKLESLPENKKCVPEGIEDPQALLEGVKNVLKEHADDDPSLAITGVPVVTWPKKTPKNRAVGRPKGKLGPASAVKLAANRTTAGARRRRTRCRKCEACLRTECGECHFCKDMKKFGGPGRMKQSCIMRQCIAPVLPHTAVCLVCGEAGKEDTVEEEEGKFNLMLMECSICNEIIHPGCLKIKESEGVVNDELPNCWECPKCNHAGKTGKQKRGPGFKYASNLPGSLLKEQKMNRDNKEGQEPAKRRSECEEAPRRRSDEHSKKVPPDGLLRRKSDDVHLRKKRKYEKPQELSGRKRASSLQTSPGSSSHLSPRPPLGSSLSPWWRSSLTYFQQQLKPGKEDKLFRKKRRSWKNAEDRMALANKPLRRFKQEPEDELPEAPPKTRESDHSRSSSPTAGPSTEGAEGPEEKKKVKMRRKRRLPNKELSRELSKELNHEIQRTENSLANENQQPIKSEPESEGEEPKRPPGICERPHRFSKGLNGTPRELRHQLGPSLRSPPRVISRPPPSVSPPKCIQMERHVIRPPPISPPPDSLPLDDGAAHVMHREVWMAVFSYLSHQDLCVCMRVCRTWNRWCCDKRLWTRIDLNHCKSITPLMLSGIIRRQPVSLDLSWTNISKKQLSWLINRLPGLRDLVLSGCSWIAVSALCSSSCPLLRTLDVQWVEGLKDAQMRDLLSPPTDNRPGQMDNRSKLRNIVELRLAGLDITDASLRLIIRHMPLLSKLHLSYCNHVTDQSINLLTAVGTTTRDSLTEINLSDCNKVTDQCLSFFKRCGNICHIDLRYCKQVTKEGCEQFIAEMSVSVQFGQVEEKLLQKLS

[3] = target: Lysine-specific demethylase 5B (Homo sapiens, UniProt Q9UGL1); experiment: Inhibition of KDM5B (1 to 809 residues)(unknown origin) by Alphalisa assay
Chain of Lysine-specific demethylase 5B (Q9UGL1 whole entry, the tested form may be a part): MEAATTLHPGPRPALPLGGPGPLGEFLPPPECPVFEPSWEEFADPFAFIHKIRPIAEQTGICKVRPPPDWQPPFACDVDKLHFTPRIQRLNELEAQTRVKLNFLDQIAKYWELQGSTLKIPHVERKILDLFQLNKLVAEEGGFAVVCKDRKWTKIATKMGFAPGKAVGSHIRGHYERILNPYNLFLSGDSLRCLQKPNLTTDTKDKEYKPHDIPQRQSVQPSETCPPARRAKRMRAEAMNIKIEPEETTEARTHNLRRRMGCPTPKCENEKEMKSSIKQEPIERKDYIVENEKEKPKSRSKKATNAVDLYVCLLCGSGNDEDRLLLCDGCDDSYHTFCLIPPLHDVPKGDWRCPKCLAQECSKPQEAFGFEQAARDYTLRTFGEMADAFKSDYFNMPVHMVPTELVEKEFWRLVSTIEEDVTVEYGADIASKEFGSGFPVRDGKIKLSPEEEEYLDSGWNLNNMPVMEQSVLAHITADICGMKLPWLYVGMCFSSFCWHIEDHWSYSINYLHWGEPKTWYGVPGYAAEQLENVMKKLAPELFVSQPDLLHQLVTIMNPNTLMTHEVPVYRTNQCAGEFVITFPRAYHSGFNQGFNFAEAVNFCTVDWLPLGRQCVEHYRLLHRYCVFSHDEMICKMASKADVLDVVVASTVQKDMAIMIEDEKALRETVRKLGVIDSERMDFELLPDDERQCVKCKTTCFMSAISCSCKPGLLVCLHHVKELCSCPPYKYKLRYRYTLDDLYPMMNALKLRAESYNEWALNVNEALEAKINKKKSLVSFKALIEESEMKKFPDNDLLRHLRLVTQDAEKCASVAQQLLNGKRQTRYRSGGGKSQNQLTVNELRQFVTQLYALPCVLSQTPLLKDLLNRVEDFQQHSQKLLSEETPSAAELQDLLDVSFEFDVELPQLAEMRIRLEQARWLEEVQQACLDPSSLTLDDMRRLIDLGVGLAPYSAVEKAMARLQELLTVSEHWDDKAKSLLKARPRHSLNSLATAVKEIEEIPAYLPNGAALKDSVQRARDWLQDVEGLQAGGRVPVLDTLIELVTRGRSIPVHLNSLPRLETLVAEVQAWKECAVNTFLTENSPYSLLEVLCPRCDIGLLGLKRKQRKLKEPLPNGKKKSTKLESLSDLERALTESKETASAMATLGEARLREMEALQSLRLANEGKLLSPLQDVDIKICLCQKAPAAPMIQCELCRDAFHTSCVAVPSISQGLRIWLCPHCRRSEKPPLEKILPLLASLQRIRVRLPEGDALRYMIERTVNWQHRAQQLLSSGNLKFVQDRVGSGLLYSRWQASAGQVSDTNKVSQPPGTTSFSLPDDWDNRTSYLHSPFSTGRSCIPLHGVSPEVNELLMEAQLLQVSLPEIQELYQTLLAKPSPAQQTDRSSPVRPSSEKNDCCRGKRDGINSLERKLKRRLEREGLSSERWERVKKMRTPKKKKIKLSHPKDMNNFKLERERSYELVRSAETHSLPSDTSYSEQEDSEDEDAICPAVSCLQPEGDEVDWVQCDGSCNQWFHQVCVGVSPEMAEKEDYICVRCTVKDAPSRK

[4] = target: Histone lysine demethylase PHF8 (Homo sapiens, UniProt Q9UPP1); experiment: Inhibition of PHF8 (1 to 1024 residues)(unknown origin) by Alphalisa assay
Chain of Histone lysine demethylase PHF8 (Q9UPP1 whole entry, the tested form may be a part): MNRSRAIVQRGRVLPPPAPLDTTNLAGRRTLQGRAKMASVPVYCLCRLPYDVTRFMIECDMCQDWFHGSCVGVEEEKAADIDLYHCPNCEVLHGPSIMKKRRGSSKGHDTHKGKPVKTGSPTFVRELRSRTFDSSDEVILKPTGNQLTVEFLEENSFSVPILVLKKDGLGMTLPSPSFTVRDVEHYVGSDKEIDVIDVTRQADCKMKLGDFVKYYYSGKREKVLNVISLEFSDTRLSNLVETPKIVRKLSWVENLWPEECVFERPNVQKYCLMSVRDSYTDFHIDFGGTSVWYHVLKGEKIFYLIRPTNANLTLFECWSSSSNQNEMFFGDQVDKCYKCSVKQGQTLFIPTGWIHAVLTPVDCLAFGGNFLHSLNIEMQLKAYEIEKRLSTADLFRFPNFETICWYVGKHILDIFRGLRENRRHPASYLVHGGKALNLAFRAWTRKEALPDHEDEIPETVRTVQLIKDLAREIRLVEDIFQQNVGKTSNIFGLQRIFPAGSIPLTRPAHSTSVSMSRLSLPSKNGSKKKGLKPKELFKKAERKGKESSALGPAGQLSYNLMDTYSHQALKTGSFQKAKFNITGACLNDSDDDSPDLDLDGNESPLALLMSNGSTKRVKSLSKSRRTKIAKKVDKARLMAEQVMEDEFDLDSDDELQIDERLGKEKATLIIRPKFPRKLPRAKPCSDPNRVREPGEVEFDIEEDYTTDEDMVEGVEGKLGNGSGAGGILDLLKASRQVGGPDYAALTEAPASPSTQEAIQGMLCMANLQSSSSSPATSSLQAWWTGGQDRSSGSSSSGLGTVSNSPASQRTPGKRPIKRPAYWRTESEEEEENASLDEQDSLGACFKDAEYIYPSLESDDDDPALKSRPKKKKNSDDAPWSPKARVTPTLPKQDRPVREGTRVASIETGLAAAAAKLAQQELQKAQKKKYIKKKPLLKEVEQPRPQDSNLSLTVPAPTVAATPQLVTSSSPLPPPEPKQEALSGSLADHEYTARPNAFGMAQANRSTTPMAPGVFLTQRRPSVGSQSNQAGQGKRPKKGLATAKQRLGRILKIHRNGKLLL

[5] = target: Lysine-specific demethylase 5C (Homo sapiens, UniProt P41229); experiment: Inhibition of KDM5C (2 to 1560 residues)(unknown origin) by Alphalisa assay

Chain of Lysine-specific demethylase 5A (P29375 whole entry, the tested form may be a part): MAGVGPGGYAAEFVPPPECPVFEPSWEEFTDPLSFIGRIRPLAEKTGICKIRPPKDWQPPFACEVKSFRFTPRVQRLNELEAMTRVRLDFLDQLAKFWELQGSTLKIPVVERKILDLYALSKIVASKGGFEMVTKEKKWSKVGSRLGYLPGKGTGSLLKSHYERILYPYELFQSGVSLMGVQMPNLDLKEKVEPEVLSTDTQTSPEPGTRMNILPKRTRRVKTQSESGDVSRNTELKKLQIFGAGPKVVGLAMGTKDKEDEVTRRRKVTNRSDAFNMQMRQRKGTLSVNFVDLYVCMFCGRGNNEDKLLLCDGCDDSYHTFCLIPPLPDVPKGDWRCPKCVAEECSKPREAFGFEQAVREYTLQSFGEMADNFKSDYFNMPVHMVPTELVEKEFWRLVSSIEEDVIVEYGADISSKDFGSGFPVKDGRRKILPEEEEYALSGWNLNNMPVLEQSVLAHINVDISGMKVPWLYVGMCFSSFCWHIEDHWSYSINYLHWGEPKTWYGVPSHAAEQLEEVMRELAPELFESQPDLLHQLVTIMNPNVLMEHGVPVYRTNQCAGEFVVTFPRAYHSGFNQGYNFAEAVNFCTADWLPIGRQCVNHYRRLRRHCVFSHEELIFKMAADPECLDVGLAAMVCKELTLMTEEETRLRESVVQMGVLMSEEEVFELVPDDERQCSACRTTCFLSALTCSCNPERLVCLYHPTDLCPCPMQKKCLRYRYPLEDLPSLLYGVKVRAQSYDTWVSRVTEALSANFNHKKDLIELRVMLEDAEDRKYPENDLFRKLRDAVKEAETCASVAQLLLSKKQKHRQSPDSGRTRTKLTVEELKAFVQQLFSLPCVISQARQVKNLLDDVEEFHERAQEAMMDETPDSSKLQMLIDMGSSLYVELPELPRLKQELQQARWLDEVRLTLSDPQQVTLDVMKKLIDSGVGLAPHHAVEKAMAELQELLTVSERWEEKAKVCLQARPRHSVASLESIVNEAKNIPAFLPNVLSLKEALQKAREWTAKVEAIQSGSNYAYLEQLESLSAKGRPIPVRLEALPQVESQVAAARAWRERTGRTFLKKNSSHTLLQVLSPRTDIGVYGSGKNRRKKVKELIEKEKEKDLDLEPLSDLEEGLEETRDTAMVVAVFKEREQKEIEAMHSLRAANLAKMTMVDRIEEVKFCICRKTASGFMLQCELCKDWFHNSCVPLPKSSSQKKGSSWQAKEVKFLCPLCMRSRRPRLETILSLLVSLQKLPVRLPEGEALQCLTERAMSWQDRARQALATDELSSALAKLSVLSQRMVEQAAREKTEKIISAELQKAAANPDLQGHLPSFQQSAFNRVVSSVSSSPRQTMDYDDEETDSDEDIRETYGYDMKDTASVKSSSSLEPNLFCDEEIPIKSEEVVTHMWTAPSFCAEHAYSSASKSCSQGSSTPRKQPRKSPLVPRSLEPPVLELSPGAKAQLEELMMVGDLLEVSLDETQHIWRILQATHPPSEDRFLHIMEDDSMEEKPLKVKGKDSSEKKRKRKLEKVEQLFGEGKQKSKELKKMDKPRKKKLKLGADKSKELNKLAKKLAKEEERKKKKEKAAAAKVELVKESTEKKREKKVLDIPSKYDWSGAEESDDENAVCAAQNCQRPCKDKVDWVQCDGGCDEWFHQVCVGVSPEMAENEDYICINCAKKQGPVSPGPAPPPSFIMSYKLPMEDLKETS

IC50 [1] [µM] | IC50 [2] [µM] | IC50 [3] [µM] | IC50 [4] [µM] | IC50 [5] [µM] | Structure (SMILES)
> 50 | 24 | > 25 | > 25 | – | CCOC(=O)CCNc1cc(N2CCc3ccccc3CC2)nc(-c2cccnc2)n1
> 20 | 8.3 | 33 | 17 | > 75 | O=C(O)CCNc1cc(N2CCc3ccccc3CC2)nc(-c2cccnc2)n1
